Measured values reported in US20030073850A1, “4-Imidazole derivatives of benzyl and restricted benzyl sulfonamides, sulfamides, ureas, carbamates, and amides and their use” (priority 1998, published 2003).
Counter-ions that a name gives are not always drawn. Like-named read-outs stand apart in the source and are kept apart here.

Columns and labels:
[1] = target: T1, α1d (rat receptor expressed in mouse fibroblasts) (Rattus norvegicus, UniProt P23944); test: Radioligand binding, [3H]-prazosin, α1d
T1 construct: expressed in transfected cells; host or cells: mouse fibroblasts
T1 sequence (P23944 1-561): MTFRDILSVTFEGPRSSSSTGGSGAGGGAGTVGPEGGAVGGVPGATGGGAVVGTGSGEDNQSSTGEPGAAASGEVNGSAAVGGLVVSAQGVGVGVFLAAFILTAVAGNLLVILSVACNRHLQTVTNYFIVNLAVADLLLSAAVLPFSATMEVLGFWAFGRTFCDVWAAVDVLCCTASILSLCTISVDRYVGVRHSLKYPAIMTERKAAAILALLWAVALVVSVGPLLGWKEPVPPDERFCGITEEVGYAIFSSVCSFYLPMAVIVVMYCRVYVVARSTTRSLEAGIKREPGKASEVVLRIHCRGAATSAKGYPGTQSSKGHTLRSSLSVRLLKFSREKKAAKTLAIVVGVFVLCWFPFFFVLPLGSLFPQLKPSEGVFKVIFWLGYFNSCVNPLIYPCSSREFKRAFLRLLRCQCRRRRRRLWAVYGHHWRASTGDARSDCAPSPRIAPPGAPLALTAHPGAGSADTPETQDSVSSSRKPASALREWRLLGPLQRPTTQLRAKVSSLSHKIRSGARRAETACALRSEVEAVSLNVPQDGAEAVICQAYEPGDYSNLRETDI
Procedure: (§1) For purposes of discussing a, adrenoceptor subtypes, the IUPHAR convention of using lower case letters to define molecular clones and upper case letters to indicate pharmacologically defined adrenoceptors has been followed. Compounds of formula I were evaluated in radioligand binding assays specific for α1A (rat submaxillary gland), α1b (hamster receptor expressed in mouse fibroblasts) and α1d (rat receptor expressed in mouse fibroblasts) using [^3H]-prazosin as the radioligand as described in Knepper, et al. J. Pharm.

[2] = target: T2, α1A (rat submaxillary gland) (Rattus norvegicus, UniProt P43140); test: Radioligand binding, [3H]-prazosin, α1A
T2 construct: α1A (rat submaxillary gland); from tissue; host or cells: rat submaxillary gland
T2 sequence (P43140 1-466): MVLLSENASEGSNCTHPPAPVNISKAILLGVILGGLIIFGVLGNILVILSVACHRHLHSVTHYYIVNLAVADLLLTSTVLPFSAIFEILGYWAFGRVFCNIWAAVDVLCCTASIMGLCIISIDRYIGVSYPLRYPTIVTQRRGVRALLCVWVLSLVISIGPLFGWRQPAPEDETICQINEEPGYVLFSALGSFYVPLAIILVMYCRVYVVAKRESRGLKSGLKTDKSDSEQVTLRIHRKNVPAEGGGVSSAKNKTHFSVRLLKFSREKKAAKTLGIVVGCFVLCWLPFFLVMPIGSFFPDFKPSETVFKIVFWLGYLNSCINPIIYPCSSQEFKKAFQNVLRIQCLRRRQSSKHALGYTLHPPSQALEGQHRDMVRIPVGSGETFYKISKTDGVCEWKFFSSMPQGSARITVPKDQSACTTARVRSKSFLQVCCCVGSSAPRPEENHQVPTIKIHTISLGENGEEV
Procedure: as §1

[3] = target: T3, α1b (hamster receptor expressed in mouse fibroblasts) (Mesocricetus auratus, UniProt P18841); test: Radioligand binding, [3H]-prazosin, α1b
T3 construct: expressed in transfected cells; host or cells: mouse fibroblasts
T3 sequence (P18841 1-515): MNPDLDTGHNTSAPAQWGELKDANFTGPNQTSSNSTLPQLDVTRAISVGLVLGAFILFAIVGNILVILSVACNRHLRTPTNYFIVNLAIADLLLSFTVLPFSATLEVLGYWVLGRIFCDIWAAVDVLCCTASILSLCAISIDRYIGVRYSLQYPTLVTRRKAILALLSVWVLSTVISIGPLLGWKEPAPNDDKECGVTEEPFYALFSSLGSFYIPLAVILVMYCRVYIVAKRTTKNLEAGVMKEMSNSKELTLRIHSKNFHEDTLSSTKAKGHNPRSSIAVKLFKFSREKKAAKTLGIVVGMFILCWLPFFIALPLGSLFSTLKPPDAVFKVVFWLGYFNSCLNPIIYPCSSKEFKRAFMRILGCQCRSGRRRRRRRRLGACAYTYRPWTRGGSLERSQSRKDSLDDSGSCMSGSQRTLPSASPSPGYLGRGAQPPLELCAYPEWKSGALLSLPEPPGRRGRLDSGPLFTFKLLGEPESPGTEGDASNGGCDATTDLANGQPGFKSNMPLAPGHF
Procedure: as §1

[4] = rat receptor expressed in mouse fibroblasts, [3H]-prazosin, read-out: Radioligand Binding Ki α1d (Rat)
[5] = hamster receptor expressed in mouse fibroblasts, [3H]-prazosin, read-out: Radioligand Binding Ki α1b (Hamster)

Ki [3, 5] [µM]	Compound	Ki [1, 4] [µM]	Ki [2] [µM]	melting point [°C]	Ki [1] [µM]	Ki [3] [µM]
10	O=S(=O)(CC(F)(F)F)Nc1cccc2c1OCCC2c1c[nH]cn1 (single isomer, unassigned) [Example 88, 2,2,2-trifluoro-N-[4-(1H-imidazol-4-yl)-3,4-dihydro-2H-chromen-8-yl]ethanesulfonamide]	10	0.573			
	O=S(=O)(CC(F)(F)F)Nc1cccc2c1CCCC2c1c[nH]cn1 (single isomer, unassigned; (+)) [Example 36, (+)-N-[5,6,7,8-tetrahydro-5-(1H-imidazol-4-yl)-1-napbthalenyl]-2,2,2-trifluoroethanesulfonamide]	10		> 260		
10	Cc1noc(C)c1S(=O)(=O)Nc1cccc2c1CCCC2c1c[nH]cn1 (stereo not drawn) [Example 61, N-[5-(1H-imidazol-4-yl)-5,6,7,8-tetrahydro-1-naphthalenyl]-3,5-dimethyl-4-isoxazolesulfonamide]	10				
10	CCS(=O)(=O)Nc1cccc2c1OCCC2c1c[nH]cn1 (stereo not drawn) [Example 79, N-[4-(1H-imidazol-4-yl)-3,4-dihydro-2H-chromen-8-yl]ethanesulfonamide]	10	0.638			
	CCS(=O)(=O)Nc1cccc2c1COC2c1c[nH]cn1.O=C(O)/C=C\C(=O)O (stereo not drawn) [Example 87, N-[1-(1H-imidazol-4-yl)-1,3-dihydro-2-benzofuran-4-yl]ethanesulfonamide Maleate]		0.936	95 to 98	10	10
	C=C(c1cccc(NS(=O)(=O)CC(F)(F)F)c1)c1c[nH]cn1.O=C(O)/C=C\C(=O)O [Example 91, 2,2,2-trifluoro-N-{3-[1-(1H-imidazol-4-yl)vinyl]phenyl}ethanesulfonamide Maleate]		1.52	149 to 153	10	10
	CCS(=O)(=O)Nc1cc(C2CCCCC2)cc2c1CCCC2c1c[nH]cn1 (stereo not drawn) [Example 101, N-[3-cyclohexyl-5-(1H-imidazol-4-yl)-5,6,7,8-tetrahydro-1-naphthalenyl]ethanesulfonamide]		0.269	207 to 209	0.449	0.886
10	CN(C)S(=O)(=O)Nc1cccc2c1CCCC2c1c[nH]cn1 (stereo not drawn) [Example 111, N′-[5-(1H-imidazol-4-yl)-5,6,7,8-tetrahydro-1-naphthalenvyl]-N,N-dimethylsulfamide]	1.59	0.579	208 to 210		
10	CCN(C(=O)Nc1cccc2c1CCCC2c1c[nH]cn1)C(C)C (stereo not drawn) [Example 118, N-ethyl-N′-[5-(1H-imidazol-4-yl)-5,6,7,8-tetrahydro-1-naphthalenyl]-N-isopropylurea]	0.92	0.329			
	COC(=O)Nc1cccc2c1CCCC2c1c[nH]cn1 (stereo not drawn) [Example 119, methyl 5-(1H-imidazol-4-yl)-5,6,7,8-tetrahydro-1-naphthalenylcarbamate]				3.04	10
10	CCOC(=O)Nc1cccc2c1CCCC2c1c[nH]cn1 (stereo not drawn) [Example 120, ethyl 5-(1H-imidazol-4-yl)-5,6,7,8-tetrahydro-1-naphthalenylcarbamate]	2.91	0.164			
	CC(C)(OC(=O)Nc1cccc2c1CCCC2c1c[nH]cn1)C(Cl)(Cl)Cl (stereo not drawn) [Example 122, 2,2,2-trichloro-1-dimethylethyl 5-(1H-imidazol-4-yl)-5,6,7,8-tetrahydro-1-naphthalenylcarbamate]		1.03		1.27	10
	Cc1ccc(OC(=O)Nc2cccc3c2CCCC3c2c[nH]cn2)cc1 (stereo not drawn) [Example 124, 4-methylphenyl 5-(1H-imidazol-4-yl)-5,6,7,8-tetrahydro-1-naphthalenylcarbamate]		0.451		0.787	1.47
10	CCS(=O)(=O)Nc1cc(F)cc2c1CCCC2c1c[nH]cn1 (stereo not drawn) [Example 131, N-[3-fluoro-5-(1H-imidazol-4-yl)-5,6,7,8-tetrahydro-1-naphthalenyl]ethanesulfonamide]	2.16	0.09			

Compound	Ki [3, 5] [µM]	Ki [1, 4] [µM]	Ki [2] [µM]	melting point [°C]	Ki [1] [µM]	Ki [3] [µM]
CS(=O)(=O)Nc1ccc(O)c2c1CCCC2c1c[nH]cn1.O=C(O)/C=C\C(=O)O (stereo not drawn) [Example 24, N-[5,6,7,8-tetrahydro-4-hydroxy-5-(1H-imidazol-4-yl)-1-naphthalenyl]methanesulfonamide, Maleate]	10	10		127 to 131		
CCS(=O)(=O)Nc1ccc(OC)c2c1CCCC2c1c[nH]cn1 (stereo not drawn) [Example 25, N-[5,6,7,8-tetrahydro-(1H-imidazol-4-yl)-4-methoxy-1-naphthalenyl]ethanesulfonamide, Maleate]	10	10				
CCS(=O)(=O)Nc1cccc2c1CCCCC2c1c[nH]cn1.O=C(O)/C=C\C(=O)O (stereo not drawn) [Example 40, N-[5-(1H-imidazol-4-yl)-6,7,8,9-tetrahydro-5H-benzo[a]cyclohepten-1-yl]ethanesulfonamide, Maleate]	10	10		155 to 156		
CCS(=O)(=O)Nc1cccc2c1CCCC2c1c[nH]c(C)n1.O=C(O)/C=C\C(=O)O (stereo not drawn) [Example 84, N-[5-(2-methyl-1H-imidazol-4-yl)-5,6,7,8-tetrahydro-1-naphthalenyl]ethanesulfonamide, Maleate]	10	10	0.792	73 to 77		
CCS(=O)(=O)Nc1cccc2c1SCCC2c1c[nH]cn1.O=C(O)/C=C\C(=O)O (stereo not drawn) [Example 89, N-[4-(1H-imidazol-4-yl)-3,4-dihydro-2H-thiochromen-8-yl]ethanesulfonamide Maleate]	10	10	1.01	248 to 251		
CCS(=O)(=O)Nc1cccc(C(=C(C)C)c2c[nH]cn2)c1 [Example 94, N-{3-[1-(1H-imidazol-4-yl)-2-methyl-1-propenyl]phenyl}ethanesulfonamide]	1.18	0.173	1.94	152 to 155		
